Experimental data taken from ChEMBL document CHEMBL1138554, “Synthesis and QSAR evaluation of 2-(substituted phenyl)-1H-benzimidazoles and [2-(substituted phenyl)-benzimidazol-1-yl]-pyridin-3-yl-methanones” (Eur J Med Chem, 2009).

Legend:
Candida albicans = assay: Antifungal activity against Candida albicans at 37 degC after 48 hrs by tube dilution method; assay type: functional; set-up: unit not given here
Staphylococcus aureus = assay: Antimicrobial activity against Staphylococcus aureus at 37 degC after 24 hrs by tube dilution method; assay type: functional; set-up: unit not given here
[1] = Octanol-water partition coefficient, log P of the compound; assay type: physicochemical
Escherichia coli = assay: Antimicrobial activity against Escherichia coli at 37 degC after 24 hrs by tube dilution method; assay type: functional; set-up: unit not given here
Bacillus subtilis = assay: Antimicrobial activity against Bacillus subtilis at 37 degC after 24 hrs by tube dilution method; assay type: functional; set-up: unit not given here
Aspergillus niger = assay: Antifungal activity against Aspergillus niger at 25 degC after 7 days by tube dilution method; assay type: functional; set-up: unit not given here

Structure (SMILES) | -logMIC (Candida albicans) | -logMIC (Staphylococcus aureus) | logP [1] | -logMIC (Escherichia coli) | -logMIC (Bacillus subtilis) | -logMIC (Aspergillus niger)
O=[N+]([O-])c1ccc(-c2nc3ccccc3[nH]2)cc1 | 1.58 | 1.01 | 3.07 | 1.2 | 1.78 | 1.58
O=C(c1cccnc1)n1c(-c2ccccc2Cl)nc2ccccc21 | 1.73 | 1.73 | 4.7 | 1.65 | 1.43 | 1.43
Clc1ccc(-c2nc3ccccc3[nH]2)cc1 | 1.56 | 1.66 | 3.63 | 1.66 | 1.51 | 1.4
O=C(c1cccnc1)n1c(-c2ccccc2[N+](=O)[O-])nc2ccccc21 | 1.74 | 1.5 | 4.13 | 1.5 | 1.5 | 1.44
Oc1ccc(-c2nc3ccccc3[nH]2)cc1 | 1.43 | 1.53 | 2.83 | 1.7 | 1.79 | 1.33
O=[N+]([O-])c1cccc(-c2nc3ccccc3[nH]2)c1 | 1.58 | 1.47 | 3.07 | 1.41 | 1.72 | 1.58
O=C(O)c1ccccc1-c1nc2ccccc2n1C(=O)c1cccnc1 | 1.74 | 1.44 | 4.13 | 1.44 | 1.44 | 1.44
O=C(O)c1ccccc1-c1nc2ccccc2[nH]1 | 1.48 | 1.5 | 2.81 | 1.7 | 1.7 | 1.28
O=C(c1cccnc1)n1c(-c2cccc(Cl)c2)nc2ccccc21 | 1.73 | 1.79 | 4.7 | 1.8 | 1.5 | 1.43
COc1ccccc1-c1nc2ccccc2n1C(=O)c1cccnc1 | 1.72 | 1.42 | 3.93 | 1.6 | 1.42 | 1.42
O=C(c1cccnc1)n1c(-c2ccc([N+](=O)[O-])cc2)nc2ccccc21 | 1.74 | 1.44 | 4.13 | 1.44 | 1.44 | 1.44
OC(Cn1cncn1)(Cn1cncn1)c1ccc(F)cc1F [FLUCONAZOLE] | 2.64 | – | – | 3.33 | – | 2.64
O=C(O)c1cn(C2CC2)c2cc(N3CCNCC3)c(F)cc2c1=O [CIPROFLOXACIN] | – | 3.33 | – | – | 3.33 | –
COc1ccccc1-c1nc2ccccc2[nH]1 | 1.25 | 1.5 | 2.86 | 1.65 | 1.71 | 1.35
O=C(c1cccnc1)n1c(-c2ccc(Cl)cc2)nc2ccccc21 | 1.73 | 1.73 | 4.7 | 1.73 | 1.43 | 1.43
O=C(c1cccnc1)n1c(-c2ccc(O)cc2)nc2ccccc21 | 1.7 | 1.7 | 3.89 | 1.8 | 1.57 | 1.4
Clc1ccccc1-c1nc2ccccc2[nH]1 | 1.26 | 1.4 | 3.63 | 1.49 | 1.49 | 1.26
Clc1cccc(-c2nc3ccccc3[nH]2)c1 | 1.26 | 1.49 | 3.63 | 1.65 | 1.49 | 1.36
c1ccc(-c2nc3ccccc3[nH]2)cc1 | 1.49 | 1.46 | 3.11 | 1.72 | 1.68 | 1.49
O=C(c1cccnc1)n1c(-c2cccc([N+](=O)[O-])c2)nc2ccccc21 | 1.74 | 1.44 | 4.13 | 1.44 | 1.44 | 1.44
O=[N+]([O-])c1ccccc1-c1nc2ccccc2[nH]1 | 1.58 | 1.17 | 3.07 | 1.35 | 1.73 | 1.58
